BindingDB's records for patent US20190276450 (Abbvie, 2019)

Tests used:
[1] = target: Non-receptor tyrosine-protein kinase TYK2 (Homo sapiens, UniProt P29597); assay: TYK2 (TYK2/JAK2 PSTAT4 T-BLAST) Alpha Screen Assay
Method: IL-12 is known to transduce its signal through IL-12 receptor via Jak2 and/or Tyk2. For that reason, the activity against Tyk2/Jak2 was measured by determining the inhibition of IL-12 induced phosphorylation of STAT4 in T-blast cells. […] See, e.g., Sohn et al., J. Immunology (2013) 2205-2216.

[2] = target: Tyrosine-protein kinase JAK1 (Homo sapiens, UniProt P23458); assay: JAK1 (PSTAT3 TF1) Alpha Screen Assay
Chain of Tyrosine-protein kinase JAK1 (P23458 whole entry): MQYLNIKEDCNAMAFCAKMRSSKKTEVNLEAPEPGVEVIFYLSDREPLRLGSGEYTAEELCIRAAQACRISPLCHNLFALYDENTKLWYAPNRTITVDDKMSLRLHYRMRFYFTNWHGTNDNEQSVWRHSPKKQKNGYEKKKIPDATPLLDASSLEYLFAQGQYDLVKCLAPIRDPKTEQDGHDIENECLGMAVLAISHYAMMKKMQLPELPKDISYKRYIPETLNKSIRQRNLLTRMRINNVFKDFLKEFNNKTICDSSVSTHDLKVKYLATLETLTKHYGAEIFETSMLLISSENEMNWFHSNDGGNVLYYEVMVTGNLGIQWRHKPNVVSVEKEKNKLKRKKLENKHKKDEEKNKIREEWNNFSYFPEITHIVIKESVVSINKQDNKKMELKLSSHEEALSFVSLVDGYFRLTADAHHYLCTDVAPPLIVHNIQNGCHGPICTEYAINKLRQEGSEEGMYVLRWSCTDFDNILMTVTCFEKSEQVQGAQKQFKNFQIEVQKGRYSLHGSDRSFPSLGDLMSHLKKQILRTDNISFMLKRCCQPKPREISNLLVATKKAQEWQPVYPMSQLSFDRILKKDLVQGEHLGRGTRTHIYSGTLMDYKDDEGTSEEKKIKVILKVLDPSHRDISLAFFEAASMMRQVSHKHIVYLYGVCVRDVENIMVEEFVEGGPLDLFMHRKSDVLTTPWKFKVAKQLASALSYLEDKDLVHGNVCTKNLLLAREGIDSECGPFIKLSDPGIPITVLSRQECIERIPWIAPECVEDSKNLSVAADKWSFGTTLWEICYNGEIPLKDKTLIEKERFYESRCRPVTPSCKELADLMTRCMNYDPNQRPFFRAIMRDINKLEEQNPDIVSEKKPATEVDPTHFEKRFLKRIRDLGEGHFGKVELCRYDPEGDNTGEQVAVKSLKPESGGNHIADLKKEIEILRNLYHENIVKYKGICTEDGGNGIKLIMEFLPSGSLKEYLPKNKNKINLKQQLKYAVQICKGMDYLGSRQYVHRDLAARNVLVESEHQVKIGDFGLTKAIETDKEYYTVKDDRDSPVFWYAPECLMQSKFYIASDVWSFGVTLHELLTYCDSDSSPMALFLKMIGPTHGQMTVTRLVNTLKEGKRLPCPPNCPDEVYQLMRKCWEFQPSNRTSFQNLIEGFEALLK
Method: IL-6 is known to transduce its signal through IL-6 receptor via Jak1. Activity against Jak was therefore measured by determining inhibition of IL-6 induced phosphorylation of STAT3 in TF1 cells. From these tests, the EC50 (effective concentration for 50% maximal response) values were determined in 1 μM for the test compounds.

Chain of Non-receptor tyrosine-protein kinase TYK2 (P29597 whole entry): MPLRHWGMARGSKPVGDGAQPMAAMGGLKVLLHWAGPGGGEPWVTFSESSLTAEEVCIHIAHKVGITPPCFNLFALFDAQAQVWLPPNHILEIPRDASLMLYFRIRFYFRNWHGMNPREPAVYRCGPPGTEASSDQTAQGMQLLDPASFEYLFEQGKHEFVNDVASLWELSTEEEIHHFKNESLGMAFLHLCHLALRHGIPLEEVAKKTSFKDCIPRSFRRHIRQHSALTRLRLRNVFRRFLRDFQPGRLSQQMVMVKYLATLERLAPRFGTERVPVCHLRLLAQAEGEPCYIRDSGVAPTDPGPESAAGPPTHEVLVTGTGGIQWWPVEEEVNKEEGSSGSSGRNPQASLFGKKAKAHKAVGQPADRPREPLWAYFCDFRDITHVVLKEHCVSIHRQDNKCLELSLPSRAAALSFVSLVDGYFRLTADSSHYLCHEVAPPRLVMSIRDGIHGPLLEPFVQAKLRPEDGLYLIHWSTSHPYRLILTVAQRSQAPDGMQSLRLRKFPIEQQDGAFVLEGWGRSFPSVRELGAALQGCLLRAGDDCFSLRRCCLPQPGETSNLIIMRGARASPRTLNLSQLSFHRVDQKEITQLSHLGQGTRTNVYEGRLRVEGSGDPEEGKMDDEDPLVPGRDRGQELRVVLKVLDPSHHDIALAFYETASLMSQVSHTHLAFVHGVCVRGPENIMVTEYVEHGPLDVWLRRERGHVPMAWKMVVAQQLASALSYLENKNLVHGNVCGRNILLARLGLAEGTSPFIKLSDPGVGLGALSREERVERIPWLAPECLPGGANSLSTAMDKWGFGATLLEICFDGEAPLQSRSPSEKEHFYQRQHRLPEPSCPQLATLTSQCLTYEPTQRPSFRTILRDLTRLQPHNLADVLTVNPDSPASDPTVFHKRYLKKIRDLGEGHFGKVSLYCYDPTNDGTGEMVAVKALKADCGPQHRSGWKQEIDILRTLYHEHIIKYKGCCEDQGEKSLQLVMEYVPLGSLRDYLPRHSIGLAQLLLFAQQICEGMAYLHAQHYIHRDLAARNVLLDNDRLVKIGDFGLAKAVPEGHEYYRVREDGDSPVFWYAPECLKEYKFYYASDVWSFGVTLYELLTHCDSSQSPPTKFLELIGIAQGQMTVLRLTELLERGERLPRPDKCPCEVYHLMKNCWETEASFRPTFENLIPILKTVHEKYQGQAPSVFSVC

| EC50 [1] [nM] | EC50 [2] [nM] | Compound |
| --- | --- | --- |
| 2030 |  | CO[C@@]1(c2cccc(-c3cn([C@H]4CC4(F)F)c4cnc(NC(N)=O)cc34)n2)CCOC1 [US20190276450, Example 1.3] |
| 288 |  | CNC(=O)Nc1cc2c(-c3cccc([C@]4(OC)CCOC4)n3)cn(C)c2cn1 [US20190276450, Example 1a.2] |
| 310 |  | COCc1cc(-c2c[nH]c3cnc(NC(C)=O)cc23)nc([C@]2(OC)CCOC2)c1 [US20190276450, Example 2-NH] |
| 699 |  | COCc1cc(-c2cn(C)c3cnc(NC(C)=O)cc23)nc([C@@]2(OC)CCOC2)c1 [US20190276450, Example 2.4] |
| 268 |  | CO[C@@]1(c2cc(C#N)cc(-c3cn(C)c4cnc(NC(C)=O)cc34)n2)CCOC1 [US20190276450, Example 2.6] |
| 749 |  | CO[C@]1(c2cc(C#N)cc(-c3cn([C@@H]4CC4(F)F)c4cnc(NC(C)=O)cc34)n2)CCOC1 [US20190276450, Example 2a.2] |
| 2360 |  | CO[C@]1(c2cc(C#N)cc(-c3cn([C@H]4CC4(F)F)c4cnc(NC(C)=O)cc34)n2)CCOC1 [US20190276450, Example 2a.4] |
| 616 |  | CO[C@]1(c2cc(C(F)F)cc(-c3cn(C4COC4)c4cnc(NC(C)=O)cc34)n2)CCOC1 [US20190276450, Example 4.2] |
| 353 |  | COc1cc(-c2cn(C3COC3)c3cnc(NC(C)=O)cc23)nc([C@@]2(OC)CCOC2)c1 [US20190276450, Example 4.4] |
| 561 |  | COc1cc(-c2cn([C@@H]3CCOC3)c3cnc(NC(C)=O)cc23)nc([C@@]2(OC)CCOC2)c1 [US20190276450, Example 5.3] |
| 352 |  | CO[C@@]1(c2cc(OCC#N)cc(-c3cn(C)c4cnc(NC(C)=O)cc34)n2)CCOC1 [US20190276450, Example 6.3] |
| 90 | 22000 | CO[C@@]1(c2cc(OC3COC3)cc(-c3cn(C)c4cnc(NC(C)=O)cc34)n2)CCOC1 [US20190276450, Example 8] |
| 319 |  | COCc1cc(-c2cn(C)c3cnc(NC(N)=O)cc23)nc([C@@]2(OC)CCOC2)c1 [US20190276450, Example 12.4] |
| 22 | 20000 | CO[C@@]1(c2cc(C(F)F)cc(-c3cn(C)c4cnc(NC(N)=O)cc34)n2)CCOC1 [US20190276450, Example 12.5] |
| 185 | 15000 | COc1cc(-c2cn(C)c3cnc(NC(N)=O)cc23)nc([C@@]2(OC)CCOC2)c1 [US20190276450, Example 12.7] |
| 66 | > 100000 | CO[C@@]1(c2cc(C#N)cc(-c3cn([C@@H]4CC4(F)F)c4cnc(NC(N)=O)cc34)n2)CCOC1 [US20190276450, Example 12a.3] |
| 15 | 40000 | CO[C@@]1(c2cc(C(F)F)cc(-c3cn([C@@H]4CCOC4)c4cnc(NC(N)=O)cc34)n2)CCOC1 [US20190276450, Example 12b.2] |
| 673 |  | COc1cc(-c2cn(C)c3cnc(NC(C)=O)cc23)nc(C2(O)COC2)c1 [US20190276450, Example 14.2] |
| 1840 |  | NC(=O)Nc1cc2c(-c3cccc(C4(O)COC4)n3)cn([C@H]3CCOC3)c2cn1 [US20190276450, Example 15.2] |
| 3140 |  | COC1(c2cccc(-c3c[nH]c4cnc(NC(C)=O)cc34)n2)CCOC1 (stereo unspecified) [US20190276450, Example 16-NH] |
| 1520 |  | CO[C@@]1(c2cccc(-c3c[nH]c4cnc(NC(C)=O)cc34)n2)CCOC1 [US20190276450, Example 17-NH] |
| 494 |  | CO[C@@]1(c2cccc(-c3cn(C4(C)COC4)c4cnc(NC(C)=O)cc34)n2)CCOC1 [US20190276450, Example 18] |
| 906 |  | COc1cc(-c2cn(C)c3cnc(NC(C)=O)cc23)nc([C@@]2(OC)CCOC2)c1 [US20190276450, Example 20a] |
| 1310 |  | CC(=O)Nc1cc2c(-c3cccc([C@@]4(CO)CCOC4)n3)cn(C)c2cn1 [US20190276450, Example 21a] |
| 3100 |  | COc1cc(-c2cn(C)c3cnc(NC(C)=O)cc23)nc([C@@]2(CO)CCOC2)c1 [US20190276450, Example 22.7] |
| 330 |  | COCc1cc(-c2nn(C)c3cnc(NC(C)=O)cc23)nc([C@]2(OC)CCOC2)c1 [US20190276450, Example 23] |

Further lines, the molecule ahead of its results:

| Compound | EC50 [1] [nM] | EC50 [2] [nM] |
| --- | --- | --- |
| CO[C@]1(c2cccc(-c3cn(C)c4cnc(NC(N)=O)cc34)n2)CCOC1 [US20190276450, Example 1a] | 468 |  |
| CO[C@]1(c2cc(C)cc(-c3cn(C)c4cnc(NC(N)=O)cc34)n2)CCOC1 [US20190276450, Example 1b.3] | 445 | 4460 |
| CC[C@@]1(c2cccc(-c3cn(C)c4cnc(NC(C)=O)cc34)n2)CCOC1 [US20190276450, Example 2.3] | 96 | 18000 |
| CC[C@]1(c2cccc(-c3cn(C)c4cnc(NC(C)=O)cc34)n2)CCOC1 [US20190276450, Example 2.3a] | 2220 |  |
| CO[C@]1(c2cc(C#N)cc(-c3cn(C)c4cnc(NC(C)=O)cc34)n2)CCOC1 [US20190276450, Example 2.5] | 694 |  |
| CO[C@]1(c2cc(C(F)F)cc(-c3cn(C)c4cnc(NC(C)=O)cc34)n2)CCOC1 [US20190276450, Example 2.7] | 254 |  |
| CO[C@]1(c2cncc(-c3cn(C)c4cnc(NC(C)=O)cc34)n2)CCOC1 [US20190276450, Example 2.9] | 716 |  |
| CO[C@@]1(c2cncc(-c3cn(C)c4cnc(NC(C)=O)cc34)n2)CCOC1 [US20190276450, Example 2.10] | 368 |  |
| CO[C@@]1(c2cc(C#N)cc(-c3cn([C@H]4CC4(F)F)c4cnc(NC(C)=O)cc34)n2)CCOC1 [US20190276450, Example 2a.5] | 1590 |  |
| CC[C@]1(c2cccc(-c3cn(C)c4cnc(NC(N)=O)cc34)n2)CCOC1 [US20190276450, Example 3.3] | 388 |  |
| COc1cc(-c2cn([C@@H]3CCOC3)c3cnc(NC(C)=O)cc23)nc([C@]2(OC)CCOC2)c1 [US20190276450, Example 5.2] | 156 | > 100000 |
| COc1cc(-c2cn(C3COC3)c3cnc(NC(C)=O)cc23)nc([C@]2(OC)CCOC2)c1 [US20190276450, Example 5] | 111 | > 100000 |
| CO[C@]1(c2cc(OCC3COC3)cc(-c3cn(C)c4cnc(NC(C)=O)cc34)n2)CCOC1 [US20190276450, Example 6.2] | 103 | 5200 |
| CO[C@@]1(c2cc(O[C@H]3C[C@@H](O)C3)cc(-c3cn(C)c4cnc(NC(C)=O)cc34)n2)CCOC1 [US20190276450, Example 11.2] | 124 |  |
| CO[C@]1(c2cc(O[C@H]3C[C@H](O)C3)cc(-c3cn(C)c4cnc(NC(C)=O)cc34)n2)CCOC1 [US20190276450, Example 11a] | 496 |  |
| CO[C@]1(c2cc(C#N)cc(-c3cn(C)c4cnc(NC(N)=O)cc34)n2)CCOC1 [US20190276450, Example 12.2] | 551 |  |
| CO[C@@]1(c2cc(C#N)cc(-c3cn([C@H]4CC4(F)F)c4cnc(NC(N)=O)cc34)n2)CCOC1 [US20190276450, Example 12a.2] | 578 |  |
| CO[C@@]1(c2cc(C(F)F)cc(-c3cn([C@H]4CCOC4)c4cnc(NC(N)=O)cc34)n2)CCOC1 [US20190276450, Example 12b.3] | 56 | 68000 |
| CO[C@@]1(c2cc(C(F)F)cc(-c3cn(C4COC4)c4cnc(NC(N)=O)cc34)n2)CCOC1 [US20190276450, Example 12b.4] | 45 | 40000 |
| Cn1cc(-c2cccc(C3COC3)n2)c2cc(NC(N)=O)ncc21 [US20190276450, Example 13] | 492 |  |
| CC(=O)Nc1cc2c(-c3cc(OC(C)C)cc(C4(O)COC4)n3)cn(C)c2cn1 [US20190276450, Example 14.3] | 339 |  |
| CO[C@@]1(c2cccc(-c3cn(C)c4cnc(NC(C)=O)cc34)n2)CCOC1 [US20190276450, Example 16] | 310 |  |
| CO[C@]1(c2cccc(-c3cn(C)c4cnc(NC(C)=O)cc34)n2)CCOC1 [US20190276450, Example 16a] | 1590 |  |
| CO[C@@]1(c2cc(C(F)F)cc(-c3cn([C@H]4C[C@@H](C#N)C4)c4cnc(NC(C)=O)cc34)n2)CCOC1 [US20190276450, Example 17.3] | 8 |  |
| CO[C@@]1(c2cccc(-c3cn([C@H]4C[C@@H](C#N)C4)c4cnc(NC(C)=O)cc34)n2)CCOC1 [US20190276450, Example 17a] | 477 |  |
| CO[C@@]1(c2cccc(-c3cn(C4(F)COC4)c4cnc(NC(C)=O)cc34)n2)CCOC1 [US20190276450, Example 18a] | 537 |  |
| CO[C@@]1(c2cccc(-c3cn(C4(C)COC4)c4cnc(NC(N)=O)cc34)n2)CCOC1 [US20190276450, Example 19] | 198 |  |
| COCCOc1cc(-c2cn(C)c3cnc(NC(C)=O)cc23)nc([C@@]2(CO)CCOC2)c1 [US20190276450, Example 22.9] | 1320 |  |
